Consider 27 molecules from US8163756B2 (priority 2004, dated 2012).

What all share (type): biochemical
For one assay, the target named is T1, Abl kinase (Homo sapiens, UniProt P00519).
T1 sequence (P00519 229-512): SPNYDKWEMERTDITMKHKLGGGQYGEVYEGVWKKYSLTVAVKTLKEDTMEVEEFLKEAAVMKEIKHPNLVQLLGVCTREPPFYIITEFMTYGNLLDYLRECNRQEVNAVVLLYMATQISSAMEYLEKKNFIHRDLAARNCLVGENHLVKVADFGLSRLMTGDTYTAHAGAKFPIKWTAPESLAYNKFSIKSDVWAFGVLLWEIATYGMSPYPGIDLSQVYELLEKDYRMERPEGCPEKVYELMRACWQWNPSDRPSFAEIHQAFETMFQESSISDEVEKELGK
Put plainly: Abl kinase assay A1 (pyruvate kinase/lactate dehydrogenase coupled, spectrophotometric). Conditions: Method A1; read-out: Abl Data (IC50). The protocol: (§1) IC50 values were calculated from a series of percent inhibition values determined at a range of inhibitor concentrations using software routines as implemented in the GraphPad Prism software package.

For a further assay, the target named is KDR kinase (Homo sapiens, UniProt P35968, DEL940-989/E990V). Put plainly: KDR kinase assay K2 (as K1, 2.1 nM enzyme, 2 h pre-incubation, 1.0 mM ATP). Particulars: Method K2; read-out: KDR Data (IC50). The procedure:
as §1

Another assay has as its target B-Raf(V599E) kinase (Homo sapiens, UniProt P15056, V600E). Put plainly: B-Raf(V599E) kinase assay B1 (construct 1, MEK1 substrate, coupled spectrophotometric). The protocol:
The test compounds were incubated with the reaction mixtureat 30° C. for 2 h. […] The reaction rate was calculated using the […] time frame. […] IC50 values were calculated from a series of percent inhibition values determined at a range of inhibitor concentrations using software routines as implemented in the GraphPad Prism software package.

Assay [1] concerns the target phosphorylated p-38-alpha kinase (Homo sapiens, UniProt Q16539). Put plainly: P-38 alpha kinase assay P1 (coupled spectrophotometric, 2 h pre-incubation). Conditions: method P1 (2 h pre-incubation); read-out: P-38 Data.

Chain of phosphorylated p-38-alpha kinase (Q16539 1-360 isoform Q16539-2): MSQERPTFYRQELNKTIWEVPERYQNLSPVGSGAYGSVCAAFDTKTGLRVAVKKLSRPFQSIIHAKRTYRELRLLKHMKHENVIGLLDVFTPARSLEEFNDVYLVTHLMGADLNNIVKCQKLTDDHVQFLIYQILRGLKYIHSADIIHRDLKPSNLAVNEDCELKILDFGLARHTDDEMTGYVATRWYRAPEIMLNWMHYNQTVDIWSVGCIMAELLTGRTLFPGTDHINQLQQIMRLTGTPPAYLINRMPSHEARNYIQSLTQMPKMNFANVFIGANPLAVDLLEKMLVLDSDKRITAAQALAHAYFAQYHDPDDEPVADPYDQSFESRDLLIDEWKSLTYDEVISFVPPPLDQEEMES
Chain of KDR kinase (P35968 with tags, fused parts or gaps DEL940-989/E990V): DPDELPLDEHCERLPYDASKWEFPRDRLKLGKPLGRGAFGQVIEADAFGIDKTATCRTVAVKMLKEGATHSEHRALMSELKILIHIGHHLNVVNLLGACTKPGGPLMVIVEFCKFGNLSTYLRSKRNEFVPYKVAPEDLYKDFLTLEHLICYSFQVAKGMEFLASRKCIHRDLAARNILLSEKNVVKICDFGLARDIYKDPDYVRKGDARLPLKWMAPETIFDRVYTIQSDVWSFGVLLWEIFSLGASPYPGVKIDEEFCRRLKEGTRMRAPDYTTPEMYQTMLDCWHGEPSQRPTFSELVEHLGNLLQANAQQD
Chain of B-Raf(V599E) kinase (P15056 with tags, fused parts or gaps V600E): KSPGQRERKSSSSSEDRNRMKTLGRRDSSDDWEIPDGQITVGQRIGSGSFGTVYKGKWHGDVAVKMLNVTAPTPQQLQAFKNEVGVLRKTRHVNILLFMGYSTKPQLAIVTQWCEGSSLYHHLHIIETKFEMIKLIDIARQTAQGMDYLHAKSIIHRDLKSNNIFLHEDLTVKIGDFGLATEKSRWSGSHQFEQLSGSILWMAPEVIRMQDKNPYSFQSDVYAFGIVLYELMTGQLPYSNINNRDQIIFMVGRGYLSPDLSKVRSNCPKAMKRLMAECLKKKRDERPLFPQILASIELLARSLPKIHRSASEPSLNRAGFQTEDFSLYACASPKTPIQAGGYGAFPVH

As to `CC(C)(C)c1cc(NC(=O)Nc2cc(F)c(F)cc2F)n(-c2ccc3c(c2)CCN3S(C)(=O)=O)n1` [Example 110, 1-(3-t-butyl-1-(1-(methylsulfonyl)indolin-5-yl)-1H-pyrazol-5-yl)-3-(2,4,5-tri-fluorophenyl)urea], the values for the IC50 on Abl kinase, at KDR kinase and on B-Raf(V599E) kinase were 360 nM, 140 nM and 3.4 nM, respectively.
For `CC(C)(C)c1cc(NC(=O)Nc2cccc(Cl)c2Cl)n(-c2ccc(CC(=O)N3CCC(C(=O)O)CC3)cc2)n1` [Example 498, 1-[2-(4-{3-t-butyl-5-[3-(2,3-dichlorophenyl)ureido]-1H-pyrazol-1-yl}-phenyl)acetyl]piperidine-4-carboxylic acid], the results for the IC50 (at KDR kinase; against B-Raf(V599E) kinase; in assay [1]) were 1700 nM, 52 nM and 9 nM, respectively.
As to `CC(C)(C)c1cc(NC(=O)Nc2cc(F)c(F)cc2F)n(-c2ccc3ncccc3c2)n1` [Example 53, 1-(3-t-butyl-1-(quinolin-6-yl)-1H-pyrazol-5-yl)-3-(2,4,5-trifluorophenyl)urea], the IC50 at Abl kinase worked out at 360 nM; at KDR kinase, 490 nM; against B-Raf(V599E) kinase it was 4.5 nM.
On to `CC(C)(C)c1cc(NC(=O)Nc2cccc(Cl)c2Cl)n(-c2cccc(CC(=O)N3CCC(C(=O)O)CC3)c2)n1` [Example 345, 1-[2-(3-{3-t-butyl-5-[3-(2,3-dichlorophenyl)ureido]-1H-pyrazol-1-yl}phenyl)acetyl]piperidine-4-carboxylic acid], for which the results for the IC50 (at KDR kinase; in assay [1]) were 2900 nM and 19 nM, respectively.
Consider `COc1ccc(-n2nc(C(C)(C)C)cc2NC(=O)Nc2cccc(Cl)c2)cc1` [Example 240, 1-[3-t-butyl-1-(4-methoxyphenyl)-1H-pyrazol-5-yl]-3-(3-chlorophenyl)urea], for which the IC50 turned out to be 3700 nM on KDR kinase, 50 nM against B-Raf(V599E) kinase and 470 nM in assay [1].
On to `CC(C)(C)c1cc(NC(=O)Nc2ccc(Cl)cc2)n(-c2cnc3ccccc3c2)n1` [Example 56, 1-(3-t-butyl-1-(quinolin-3-yl)-1H-pyrazol-5-yl)-3-(4-chlorophenyl)urea], for which the results for the IC50 at Abl kinase and at KDR kinase were 4800 nM and 3100 nM, respectively.
For the molecule `CC(C)(C)c1cc(NC(=O)Nc2cccc3ccccc23)n(-c2cccc(CCO)c2)n1` [Example 341, 1-{3-t-butyl-1-[3-(2-hydroxyethyl)phenyl]-1H-pyrazol-5-yl}-3-(naphthalen-1-yl)urea], the IC50 on KDR kinase came to 5500 nM; in assay [1], 27 nM.
As for `COc1cccc(-n2nc(C(C)(C)C)cc2NC(=O)Nc2ccc(Cl)cc2Cl)c1` [Example 233, 1-(3-t-butyl-1-(3-methoxyphenyl)-1H-pyrazol-5-yl)-3-(2,4-dichlorophenyl)urea], the IC50 on KDR kinase is 410 nM; at B-Raf(V599E) kinase, 28 nM; in assay [1], 50 nM.
The matching figures for `COc1ccc(-n2nc(C(C)(C)C)cc2NC(=O)Nc2ccccc2F)cc1` [Example 237, 1-[3-t-butyl-1-(4-methoxyphenyl)-1H-pyrazol-5-yl]-3-(2-fluorophenyl)urea]: 4900 nM, 59 nM and 580 nM.
In the case of `CC(C)(C)c1cc(NC(=O)Nc2cccc3ccccc23)n(-c2ccc3c(c2)CNCC3)n1` [Example 349], the values for the IC50 (on KDR kinase; in assay [1]) were 4100 nM and 30 nM, respectively.
Regarding `CC(C)(C)c1cc(NC(=O)Nc2ccc(F)c(F)c2F)n(-c2cccc(C#N)c2)n1` [Example 210, 1-(3-t-butyl-1-(3-cyanophenyl)-1H-pyrazol-5-yl)-3-(2,3,4-trifluorophenyl)urea], the IC50 turned out to be 110 nM at KDR kinase and 24 nM in assay [1].
Turning to `CC(C)(C)c1cc(NC(=O)Nc2cccc(Cl)c2Cl)n(-c2cccc(CC(=O)N3CCCC(C(=O)O)C3)c2)n1` (stereo not shown) [Example 398, 1-[2-(3-{3-t-butyl-5-[3-(2,3-dichlorophenyl)-ureido]-1H-pyrazol-1-yl}-phenyl)acetyl]piperidine-3-carboxylic acid], the IC50 at KDR kinase turned out to be 2700 nM; at B-Raf(V599E) kinase, 12 nM; in assay [1], 26 nM.
With `Cn1[nH]c(=O)n(Cc2cccc(-n3nc(C(C)(C)C)cc3NC(=O)Nc3cccc(Cl)c3Cl)c2)c1=O` [Example 268, 1-{5-t-butyl-2-[3-(1-methyl-3,5-dioxo-[1,2,4]triazolidin-4-ylmethyl)-phenyl]-2H-pyrazol-3-yl}-3-(2,3-dichloro-phenyl)-urea], the IC50 worked out at 2600 nM at KDR kinase and 11 nM at B-Raf(V599E) kinase.
For `CC(C)(C)c1cc(NC(=O)Nc2cccc(F)c2F)n(-c2ccc3c(c2)CCNC(=O)C3)n1` [Example 334, 1-(3-t-butyl-1-(2-oxo-2,3,4,5-tetrahydro-1H-benzo[d]azepin-7-yl)-1 H-pyrazol-5-yl)-3-(2,3-difluorophenyl)urea] the same measures were 3400 nM and 11 nM.
The matching figures for `COc1cccc(-n2nc(C(C)(C)C)cc2NC(=O)Nc2cccc(Br)c2)c1` [Example 232, 1-(3-t-butyl-1-(3-methoxyphenyl)-1H-pyrazol-5-yl)-3-(3-bromophenyl)urea]: 2600 nM and 38 nM.
The matching figures for `CC(C)(C)c1cc(NC(=O)Nc2cccc(F)c2F)n(-c2ccc3ncccc3c2)n1` [Example 283, 1-(3-t-butyl-1-(quinolin-6-yl)-1H-pyrazol-5-yl)-3-(2,3-difluorophenyl)urea]: 440 nM and 6.4 nM.
For `CC(C)(C)c1cc(NC(=O)Nc2ccc(Cl)cc2)n(-c2cccc(CN3C(=O)C(=O)NS3(=O)=O)c2)n1` [Example 225, 1-{5-t-butyl-2-[3-(1,1,3,4-tetraoxo-1λ^6-[1,2,5]thiadiazolidin-2-ylmethyl)phenyl]-2H-pyrazol-3-yl}-3-(4-chlorophenyl)urea], the IC50 at KDR kinase amounted to 9600 nM; against B-Raf(V599E) kinase, 170 nM.
On to `CC(C)(C)c1cc(NC(=O)Nc2cccc3ccccc23)n(-c2ccc3c(c2)CCC(=O)N3)n1` [Example 198, 1-(3-t-butyl-1-(2-oxo-1,2,3,4-tetrahydroquinolin-6-yl)-1H-pyrazol-5-yl)-3-(naphthalen-1-yl)urea], for which the figures for the IC50 (at KDR kinase; in assay [1]) were 1300 nM and 59 nM, respectively.
For the molecule `CC(C)(C)c1cc(NC(=O)Nc2cccc(F)c2F)n(-c2cccc(C#N)c2)n1` [Example 4, 1-[3-t-butyl-1-(3-cyan-phenyl)-1H-pyrazol-5-yl]-3-(2,3-difluorophenyl)urea], the IC50 stood at 2900 nM at Abl kinase and 310 nM at KDR kinase.
With `CC(C)(C)c1cc(NC(=O)Nc2cccc(F)c2F)n(-c2ccc(CC(=O)O)cc2)n1` [Example 382, 2-(4-(3-t-butyl-5-(3-(2,3-difluorophenyl)ureido)-1H-pyrazol-1-yl)phenyl)acetic acid], the IC50 at KDR kinase turned out to be 10300 nM; at B-Raf(V599E) kinase, 77 nM.
The matching figures for `CC(C)(C)c1cc(NC(=O)Nc2ccccc2F)n(-c2cccc(CCC(=O)O)c2)n1` [Example 265, 3-(3-{3-t-butyl-5-[3-(2-fluorophenyl)ureido]-1H-pyrazol-1-yl}-phenyl)propionic acid]: 9800 nM and 14 nM.
With `CC(C)(C)c1cc(NC(=O)Nc2cc(F)c(F)c(F)c2)n(-c2cccc(C#N)c2)n1` [Example 12, 1-(3-t-butyl-1-(3-cyanophenyl)-1H-pyrazol-5-yl)-3-(3,4,5-trifluorophenyl)urea], the results for the IC50 on Abl kinase and at KDR kinase were 390 nM and 280 nM, respectively.
As to `CC(C(N)=O)c1cccc(-n2nc(C(C)(C)C)cc2NC(=O)Nc2cccc(Cl)c2Cl)c1` (stereo not shown) [Example 249, 1-(1-(3-(1-amino-1oxopropan-2-yl)phenyl)-3-t-butyl-1H-pyrazol-5-yl)-3-(2,3-dichlorophenyl)urea], the IC50 at KDR kinase came to 590 nM; against B-Raf(V599E) kinase, 4.5 nM; in assay [1], 11 nM.
As to `CC(C)(C)c1cc(NC(=O)Nc2cccc(Cl)c2Cl)n(-c2cccc(CC(=O)N3CCS(=O)(=O)CC3)c2)n1` [Example 396, 1-(3-t-butyl-1-{3-[2-(1,1-dioxo-1[…]6-thiomorpholin-4-yl)-2-oxoethyl]phenyl}-1H-pyrazol-5-yl)-3-(2,3-dichlorophenyl)urea], the IC50 at KDR kinase turned out to be 3100 nM; at B-Raf(V599E) kinase, 32 nM.
For `CC(C)(C)c1cc(NC(=O)Nc2cc(F)ccc2F)n(-c2cccc(C#N)c2)n1` [Example 213, 1-(3-t-butyl-1-(3-cyanophenyl)-1H-pyrazol-5-yl)-3-(2,5-difluorophenyl)urea], the IC50 on KDR kinase came to 210 nM; at B-Raf(V599E) kinase it was 12 nM; in assay [1], 67 nM.
For `CC(C)(C)c1cc(NC(=O)Nc2cccc(Cl)c2Cl)n(-c2cccc(CC(=O)N3CCC[C@@H]3C(=O)O)c2)n1` [Example 400, (2R)-1-[2-(3-{3-t-butyl-5-[3-(2,3-dichlorophenyl)ureido]-1H-pyrazol-1-yl}phenyl)acetyl]pyrrolidine-2-carboxylic acid] the same measures were 3700 nM, 19 nM and 46 nM.
`CCOC(=O)C1CCCN(C(=O)Cc2cccc(-n3nc(C(C)(C)C)cc3NC(=O)Nc3cccc(Cl)c3Cl)c2)C1` (stereo not shown) [Example 397, ethyl 1-[2-(3-{3-t-butyl-5-[3-(2,3-dichlorophenyl)ureido]-1H-pyrazol-1-yl}phenyl)acetyl]piperidine-3-carboxylate]: the IC50 was found to be 3400 nM at KDR kinase and 57 nM on B-Raf(V599E) kinase.
